Test results from patent publication US20240366560A1, “SMALL MOLECULE TREATMENT OF FATTY LIVER DISEASE AND HCC” (ScandiEdge Therapeutics AB, priority 2021, published 2024).

Tests used:
HSD-fed rats = experiment: In vivo efficacy study in HSD-fed steatosis rats: immunohistochemical 8-OH-dG examination of liver; parameters: species or system rat; conditions: 30 mg/kg, 7 days, HSD 3w group: strong, FIG. 3
From the text: In vivo efficacy studies. After 1-week acclimation period, rats were randomly separated into two groups: control group (n=5) and high sucrose group (n=20). The control group was fed with a standard diet while the others consumed high sucrose diet (HSD). Sucrose was purchased from Sigma Chemical Co. (St Louis, MO, USA) and supplied at the dose of 10% in the drink water for two weeks. After 2 weeks, five rats in the HSD group were randomly sacrificed for conformation of NAFLD model. Then, the remaining rats in the HSD group were separated into three sub-groups (n=5): HSD group, HSD plus BX-912 group and HSD plus JNK-IN-5A group. BX-912 and JNK-IN-5A were dissolved in DMSO and were orally administrated using oral gavage for one week (30 mg/kg/day). The HSD group were treated with vehicle solution only. At the end of the experiment, rats were sacrificed after being anesthetized. Blood samples were collected from the abdominal aorta and centrifuged at 8000 rpm for 15 min at 4° C. The plasma was separated and stored at −80° C. until further analysis. Other internal organs, including the heart, adipose tissues, liver, kidney, muscle, intestine (duodenum, ileum, jejunum), pancreas, colon and stomach were immediately removed and then snap frozen in liquid nitrogen and stored at −80° C.; the liver was also fixed in 10% formaldehyde for histopathological examination. Immunohistochemical examination. […]

Sprague Dawley male rats = experiment: In vivo biosafety study: immunohistochemical 8-OH-dG examination of liver; parameters: species or system rat; conditions: 30 mg/kg oral, 7 days, CHOW
Procedure: In vivo biosafety studies. Healthy Sprague Dawley male rats (12 weeks old, 250-280 g) were obtained from Atatürk University Experimental Research Center (ATADEM, Erzurum Turkey) and housed under standard environmental conditions (temperature 20° C.-25° C., humidity 50±20% and 12-hour light/dark diurnal cycle). Food and water were available ad libitum. Rats were randomly separated into one control group and two experimental groups (30 mg/kg/day BX-912 or JNK-IN-5A, n=5). BX-912 and JNK-IN-5A were dissolved in DMSO and orally administrated using oral gavage for 7 days. The control group were received the same amount of vehicle solution only.
After 7 days, rats were anaesthetized, and blood samples were collected from the abdominal aorta for biochemical and haematological analysis. The plasma was separated and stored at −80° C. for further analysis. Major organs such as heart, kidney, liver, muscle, adipose, intestine (duodenum, ileum, jejunum), pancreas, colon, and stomach were collected from all the animals for further analysis. Selected organs were fixed in 10% neutral buffered formalin for histopathological examination.
Immunohistochemical examination. After deparaffinization, the slides were immersed in antigen retrieval solution (pH 6.0) and heated in microwave for 15 min to unmask the antigens. The sections were then dipped in 3% H2O2 for 10 min to block endogenous peroxidase activity. […]

Row | SMILES | 8-OH-dG expression in hepatocytes in liver tissues (HSD-fed rats) | 8-OH-dG expression in liver tissues (IHC) (Sprague Dawley male rats)
1 | N#Cc1c(NC(=O)c2cccc3ccccc23)sc2c1CCCC2 [JNK-IN-5A, N-(3-cyano-4,5,6,7-tetrahydrobenzo [b]thien-2-yl)-1-naphthalenecarboxamide] | significantly decreased | negative
2 | O=C(Nc1cccc(Nc2ncc(Br)c(NCCc3cnc[nH]3)n2)c1)N1CCCC1 [BX-912, N-[3-[[5-bromo-4-[[2-(1H-imidazol-5-yl)ethyl]amino]-2-pyrimidinyl]amino]phenyl]-1-pyrrolidinecarboxamide] | significantly decreased | negative
